Reference: article PMC11372076, “A dual inhibitor of PIP5K1C and PIKfyve prevents SARS-CoV-2 entry into cells” (Experimental & Molecular Medicine, 2024)

Tests used:
SARS-CoV-2 = assay: microbe, parasite or virus in culture; assay type: cell-based, SARS-CoV-2 (hCoV-19/Korea/KCDC06/2020); conditions: for EC50: Severe acute respiratory syndrome coronavirus 2, Vero, 48 h, read-out: EC50 (reducing number of spike-positive cells by 50%); for selectivity index (SI), ratio of CC50 to EC50: Vero cells, Day 2
PIKFYVE = PIKFYVE (Homo sapiens, UniProt Q9Y2I7); assay: SelectScreen Kinase Profiling Service (PIPK profiling); assay type: biochemical; conditions: [ATP] 100 μM; 1 μM (concentration stated for UNI418 only)
Sequence of PIKFYVE (Q9Y2I7 whole entry): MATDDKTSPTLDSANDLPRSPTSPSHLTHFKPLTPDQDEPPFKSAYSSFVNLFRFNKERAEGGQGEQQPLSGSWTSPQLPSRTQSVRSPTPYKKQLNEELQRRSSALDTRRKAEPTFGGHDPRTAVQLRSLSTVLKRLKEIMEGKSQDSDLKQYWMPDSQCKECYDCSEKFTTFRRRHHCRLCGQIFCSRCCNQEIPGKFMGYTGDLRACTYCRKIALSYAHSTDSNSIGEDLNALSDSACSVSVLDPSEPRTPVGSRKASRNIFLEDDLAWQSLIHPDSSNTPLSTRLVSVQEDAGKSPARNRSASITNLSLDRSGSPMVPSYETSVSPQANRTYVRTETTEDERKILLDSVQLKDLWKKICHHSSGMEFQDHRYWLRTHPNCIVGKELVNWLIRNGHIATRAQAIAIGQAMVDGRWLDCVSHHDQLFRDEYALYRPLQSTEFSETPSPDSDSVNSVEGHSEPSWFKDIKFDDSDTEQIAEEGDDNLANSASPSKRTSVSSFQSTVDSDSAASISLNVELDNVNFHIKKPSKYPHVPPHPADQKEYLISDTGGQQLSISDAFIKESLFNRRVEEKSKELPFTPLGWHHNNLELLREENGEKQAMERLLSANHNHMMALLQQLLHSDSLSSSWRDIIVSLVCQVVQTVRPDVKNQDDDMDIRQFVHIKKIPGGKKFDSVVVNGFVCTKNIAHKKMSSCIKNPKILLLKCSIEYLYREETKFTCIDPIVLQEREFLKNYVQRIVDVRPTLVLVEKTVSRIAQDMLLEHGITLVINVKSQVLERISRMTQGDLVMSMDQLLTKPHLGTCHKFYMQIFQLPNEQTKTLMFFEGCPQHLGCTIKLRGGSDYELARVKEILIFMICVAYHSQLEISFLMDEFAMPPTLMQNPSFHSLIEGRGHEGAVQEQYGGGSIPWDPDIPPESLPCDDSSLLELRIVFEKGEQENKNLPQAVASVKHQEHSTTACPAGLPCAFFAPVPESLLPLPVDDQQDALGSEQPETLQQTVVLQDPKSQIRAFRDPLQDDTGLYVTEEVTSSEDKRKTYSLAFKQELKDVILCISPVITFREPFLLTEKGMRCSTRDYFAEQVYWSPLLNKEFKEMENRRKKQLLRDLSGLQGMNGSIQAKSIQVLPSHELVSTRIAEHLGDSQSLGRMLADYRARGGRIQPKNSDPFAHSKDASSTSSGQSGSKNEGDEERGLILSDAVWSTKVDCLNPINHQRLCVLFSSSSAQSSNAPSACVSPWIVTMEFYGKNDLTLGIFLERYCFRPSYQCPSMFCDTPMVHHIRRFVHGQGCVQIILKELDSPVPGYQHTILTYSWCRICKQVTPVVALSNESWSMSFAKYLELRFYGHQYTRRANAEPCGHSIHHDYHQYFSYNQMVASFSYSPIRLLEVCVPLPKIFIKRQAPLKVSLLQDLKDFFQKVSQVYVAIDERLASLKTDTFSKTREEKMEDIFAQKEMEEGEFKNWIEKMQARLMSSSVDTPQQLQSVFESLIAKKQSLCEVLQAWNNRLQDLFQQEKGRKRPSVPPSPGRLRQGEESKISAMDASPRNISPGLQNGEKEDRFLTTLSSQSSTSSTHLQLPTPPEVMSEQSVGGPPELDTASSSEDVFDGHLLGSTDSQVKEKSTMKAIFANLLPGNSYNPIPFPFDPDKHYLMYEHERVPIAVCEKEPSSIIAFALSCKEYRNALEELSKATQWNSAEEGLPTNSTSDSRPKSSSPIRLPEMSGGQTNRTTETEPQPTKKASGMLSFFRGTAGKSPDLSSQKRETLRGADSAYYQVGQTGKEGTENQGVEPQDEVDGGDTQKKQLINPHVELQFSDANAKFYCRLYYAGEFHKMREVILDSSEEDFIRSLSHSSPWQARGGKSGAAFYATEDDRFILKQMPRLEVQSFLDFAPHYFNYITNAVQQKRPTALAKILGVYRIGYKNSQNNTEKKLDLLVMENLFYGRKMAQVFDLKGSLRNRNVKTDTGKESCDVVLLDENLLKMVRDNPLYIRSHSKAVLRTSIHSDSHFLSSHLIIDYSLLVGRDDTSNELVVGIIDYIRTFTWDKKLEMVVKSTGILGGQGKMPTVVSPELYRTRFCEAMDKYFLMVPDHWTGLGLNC
Description: UNI418 has a core structure consisting of 4-quinazolinamine (Fig. 1a, green), which is often found in kinase inhibitors. […] The phosphoinositide (PI) system is a crucial regulatory mechanism in membrane trafficking and is tightly regulated through phosphorylation cascades by multiple phosphatidylinositol phosphate kinases (PIPKs)[30]. We hypothesized that UNI418 may inhibit PIPK(s) and performed PIPK profiling analysis. […] To test whether UNI418 interacts with PIP5K1C and PIKfyve, we performed a CETSA, which determines the characteristics of protein stabilization upon ligand binding to the target protein[31]. UNI418- or DMSO-treated cell lysates were incubated at different temperatures, and the presence of the target protein in the soluble fraction was analyzed by Western blotting (Fig. 1c).
Fig. 1 UNI418 specifically targets PIP5K1 and PIKfyve. a Chemical structure of UNI418. The 4-quinazolinamine core is highlighted in green. b Table of the kinase profiling analysis. Inhibition of several kinases was determined at a 1 μM concentration of UNI418 and analyzed by the SelectScreen Kinase Profiling Service (Thermo Fisher Scientific). c Cellular thermal shift assay. Ectopically expressed GFP-PIP5K1C and GFP-PIKfyve were heated to the indicated temperatures with/without UNI418, and the presence of protein in the soluble fraction was analyzed by Western blot analysis. TEXT PRINTED IN THE PICTURE: (b) UNI418: % Inhibition (mean): 11 ([ATP] Tested (μM): 10; Kinase Tested: PI4K2A (PI4K2 alpha)); % Inhibition (mean): 4 ([ATP] Tested (μM): 10; Kinase Tested: PI4K2B (PI4K2 beta)); % Inhibition (mean): -6 ([ATP] Tested (μM): 10; Kinase Tested: PI4KA (PI4K alpha)); % Inhibition (mean): 48 ([ATP] Tested (μM): Km app; Kinase Tested: PI4KB (PI4K beta)); % Inhibition (mean): 20 ([ATP] Tested (μM): 10; Kinase Tested: PIK3C2B (PI3K-C2 beta)); % Inhibition (mean): 22 ([ATP] Tested (μM): 10; Kinase Tested: PIK3C2G (PI3K-C2 gamma)); % Inhibition (mean): 4 ([ATP] Tested (μM): 100; Kinase Tested: PIK3C3 (hVPS34)); % Inhibition (mean): 8 ([ATP] Tested (μM): 10; Kinase Tested: PIK3CA/PIK3R3 (p110 alpha/p55 gamma)); % Inhibition (mean): 7 ([ATP] Tested (μM): 10; Kinase Tested: PIK3CB/PIK3R2 (p110 beta/p85 beta)); % Inhibition (mean): 9 ([ATP] Tested (μM): 10; Kinase Tested: PIP4K2A); % Inhibition (mean): 67 ([ATP] Tested (μM): 10; Kinase Tested: PIP5K1A); % Inhibition (mean): 93 ([ATP] Tested (μM): 10; Kinase Tested: PIP5K1B); % Inhibition (mean): 93 ([ATP] Tested (μM): 10; Kinase Tested: PIP5K1C); % Inhibition (mean): 100 ([ATP] Tested (μM): 100; Kinase Tested: PIKFYVE) | (b) Apilimod: % Inhibition (mean): 100 ([ATP] Tested (μM): 100; Kinase Tested: PIKFYVE) […]

in vitro = conditions: African green monkey
RPE1 cells = assay: Western blot of autophagy-monitoring proteins SQSTM1/p62 and LC3-II; assay type: cell-based
Description: Fig. 2 UNI418 inhibits autophagy. a Western blot analysis of p62, LC3B-I, LC3B-II and GAPDH in the presence of UNC3230, apilimod and UNI418. b Immunofluorescence staining with LC3B (green) and p62 (red) antibodies upon treatment with UNC3230, apilimod and UNI418, and images within the white rectangular boxes are magnified on the right side. Scale bar, 20 µm. c The area of fluorescence intensity from immunofluorescence images (b) was quantified after UNC3230, apilimod and UNI418 treatments. d, e Quantification of autophagic flux under normal conditions and under HBSS-induced starvation conditions with or without UNI418 treatment. RPE1 cells were treated with UNI418 (0.5 µM or 1 µM) for 2 h in the presence or absence of a lysosomal inhibitor (bafilomycin A1, BFA). Representative Western blot images (d) and the graph showing the average of 4 independent experiments (e). The error bars indicate the S.D. Statistical analysis was performed using two-way ANOVA; *p < 0.05, ***p < 0.001.
Supplementary Materials and Methods
The whole cell extracts were prepared by lysis of harvested cells with M -PER Mammalian protein extraction reagent (Thermo Fisher Scientific). The protein concentrations were determined by Bradford protein assay (Bio- Rad). The 10 to 20 μ g of prepared proteins were separated by the SDS-PAGE and transferred to PVDF membrane, which were then blocked in 5% skim milk for 30 minutes at room temperature. […] The images were obtained and quantified by Fusion solo ChemiDoc system (Vilber).
Autophagic flux assay was analyzed essentially as previously described1,2.
Briefly, RPE1 cells were treated with UNI418 (0, 0.5, or 1 µM) for 2 h with/without bafilomycin A1 to inhibit lysosomal degradation under normal growth media or HBSS. […] The LC3- II bands were quantified using Fusion Solo ChemiDoc system (Vilber) and normalized to GAPDH bands.
Autophagy flux was calculated by subsidizing the lysosomal inhibitor-treated cells to non- treatment cells in both normal growth media and HBSS-induced starvation with 0, 0.5, or 1 µM UNI418. […]

Structure (SMILES)	EC50 (SARS-CoV-2)	selectivity index (SI), ratio of CC50 to EC50 (SARS-CoV-2)	inhibition at 1 µM (PIKFYVE)	CC50 (in vitro)	accumulation of SQSTM1/p62 and LC3-II (RPE1 cells)
c1ccc(-c2cc(Nc3nc(-c4ccncc4)nc4ccccc34)n[nH]2)cc1 [UNI418, N -(5-phenyl-1 H -pyrazol-3-yl)-2-(4-pyridinyl)-4-quinazolinamine]	1.4 µM	45.6	100%	62.3 µM	strongly induced
Cc1cccc(/C=N/Nc2cc(N3CCOCC3)nc(OCCc3ccccn3)n2)c1 [apilimod]	0.3 µM	272.6	100%	73.6 µM	strongly induced
